Earlier results, collected in US20230086007A1, “USE OF DENATONIUM BENZOATE AS A SEED TREATMENT FOR CROPS AS BIRD AND/OR INSECT REPELLENT” (KWS SAAT SE & Co. KGaA, priority 2020, published 2023).

Test system: maize
Settings: maize seed treatment; cited from earlier work

For CN(C)C(=S)SSC(=S)N(C)C [Thiram], the “effect on early seedling vigour” value is given as “significant reduction in early seedling vigour”.
